Data reported in patent US12655116B2, “Substituted isophthalic acid diamides” (Bayer Aktiengesellschaft, priority 2020, dated 2026).

How the values were obtained:
MATIN [1] = assay: Post-emergence herbicidal action against MATIN; assay type: in vivo, Matricaria inodora; details: dosage 20 g/ha
Method in brief: (§1)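 Greenhouse pot plants in sandy loam were sprayed at the one-leaf stage, 2 to 3 weeks after sowing, with WP or EC formulations as aqueous suspension or emulsion (600 to 800 l/ha water, 0.2% wetting agent). About 3 weeks later, damage was scored visually against untreated controls as % action (100% = dead, 0% = like control).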

POLCO = assay: Pre-emergence herbicidal action against POLCO; assay type: in vivo, Polygonum convolvulus
Method in brief: (§2)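 Visual rating at 3 weeks vs untreated pots; 0–100% scale, 100% = plants died. Treatment: aqueous WP/EC spray onto covering soil, 600–800 l/ha, 0.2% wetter, seeds in sandy loam.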

VIOTR [2] = assay: Pre-emergence herbicidal action against VIOTR; assay type: in vivo, Viola tricolor
Method in brief: as §2

PHBPU [3] = assay: Post-emergence herbicidal action against PHBPU; assay type: in vivo, Pharbitis purpurea
Method in brief: as §1

PHBPU [4] = assay: Pre-emergence herbicidal action against PHBPU; assay type: in vivo, Pharbitis purpurea
Method in brief: as §2

ALOMY [5] = assay: Pre-emergence herbicidal action against ALOMY; assay type: in vivo, Alopecurus myosuroides
Method in brief: as §2

LOLRI = assay: Pre-emergence herbicidal action against LOLRI; assay type: in vivo, Lolium rigidum; details: 80 g/ha
Method in brief: as §2

ECHCG [6] = assay: Pre-emergence herbicidal action against ECHCG; assay type: in vivo, Echinochloa crus-galli
Method in brief: as §2

MATIN [7] = assay: Pre-emergence herbicidal action against MATIN; assay type: in vivo, Matricaria inodora
Method in brief: as §2

ECHCG [8] = assay: Post-emergence herbicidal action against ECHCG; assay type: in vivo, Echinochloa crus-galli
Method in brief: as §1

SETVI [9] = assay: Pre-emergence herbicidal action against SETVI; assay type: in vivo, Setaria viridis
Method in brief: as §2

VERPE [10] = assay: Pre-emergence herbicidal action against VERPE; assay type: in vivo, Veronica persica; details: dosage 80 g/ha
Method in brief: as §2

ALOMY [11] = assay: Post-emergence herbicidal action against ALOMY; assay type: in vivo, Alopecurus myosuroides; details: visual assessment about 3 weeks after treatment vs untreated controls
Method in brief: as §1

VERPE [12] = assay: Post-emergence herbicidal action against VERPE; assay type: in vivo, Veronica persica; details: 20 g/ha
Method in brief: as §1

AVEFA = assay: Pre-emergence herbicidal action against AVEFA; assay type: in vivo, Avena fatua
Method in brief: as §2

ABUTH [13] = assay: Pre-emergence herbicidal action against ABUTH; assay type: in vivo, Abutilon theophrasti
Method in brief: as §2

VIOTR [14] = assay: Post-emergence herbicidal action against VIOTR; assay type: in vivo, Viola tricolor; details: Viola tricolor, 504 h, 20 g/ha
Method in brief: as §1

SETVI [15] = assay: Post-emergence herbicidal action against SETVI; assay type: in vivo, Setaria viridis; details: Setaria viridis, 504 h
Method in brief: as §1

ABUTH [16] = assay: Post-emergence herbicidal action against ABUTH; assay type: in vivo, Abutilon theophrasti; details: visual assessment about 3 weeks after treatment vs untreated controls
Method in brief: as §1

AMARE [17] = assay: Post-emergence herbicidal action against AMARE; assay type: in vivo, Amaranthus retroflexus; details: 20 g/ha, visual assessment about 3 weeks after treatment, 100% = plants have died, 0% = like control plants
Method in brief: as §1

AMARE [18] = assay: Pre-emergence herbicidal action against AMARE; assay type: in vivo, Amaranthus retroflexus
Method in brief: as §2

DIGSA = assay: Pre-emergence herbicidal action against DIGSA; assay type: in vivo, Digitaria sanguinalis
Method in brief: as §2

[19] = 20 g/ha, scored visually after 3 weeks, 100% = plants have died, 0% = like control plants
[20] = 80 g/ha, scored visually after 3 weeks vs untreated controls (100% = plants have died, 0% = like control plants)

SMILES: CCNC(=O)c1c(C(F)(F)F)ccc(C(=O)Nc2nnnn2C)c1CC [Example 1-272]
- pest or weed control at 20 g/ha (MATIN [1]; Tripleurospermum inodorum, 504 h): 90%
- pest or weed control at 20 g/ha (POLCO; Fallopia convolvulus, 504 h, dosage 20 g/ha): 80%
- pest or weed control at 80 g/ha (POLCO; Fallopia convolvulus, 504 h, dosage 80 g/ha): 90%
- pest or weed control at 20 g/ha (VIOTR [2]; Viola tricolor, 504 h, dosage 20 g/ha): 90%
- pest or weed control at 80 g/ha (VIOTR [2]; Viola tricolor, 504 h, dosage 80 g/ha): 100%
- pest or weed control at 20 g/ha (PHBPU [3]; Ipomoea purpurea, 504 h, dosage 20 g/ha): 90%
- pest or weed control at 80 g/ha (PHBPU [4]; Ipomoea purpurea, 504 h, dosage 80 g/ha): 80%
- pest or weed control at 80 g/ha (ALOMY [5]; Alopecurus myosuroides, 504 h, 80 g/ha, pre-emergence, scored visually after 3 weeks vs untreated controls (100% = plants have died, 0% = like control plants)): 100%
- pest or weed control at 20 g/ha (ALOMY [5]; Alopecurus myosuroides, pre-emergence, 504 h, 20 g/ha, scored visually after 3 weeks, 100% = plants have died, 0% = like control plants): 90%
- pest or weed control at 80 g/ha (LOLRI; Lolium rigidum, 504 h): 80%
- pest or weed control at 80 g/ha (ECHCG [6]; Echinochloa crus-galli, 504 h, 80 g/ha): 100%
- pest or weed control at 20 g/ha (MATIN [7]; Tripleurospermum inodorum, 504 h, dosage 20 g/ha): 90%
- pest or weed control at 80 g/ha (MATIN [7]; Tripleurospermum inodorum, 504 h, dosage 80 g/ha): 100%
- pest or weed control at 5 g/ha (ECHCG [8]; Echinochloa crus-galli, 504 h, dosage 5 g/ha): 80%
- pest or weed control at 20 g/ha (ECHCG [8]; Echinochloa crus-galli, 504 h, dosage 20 g/ha): 90%
- pest or weed control at 20 g/ha (SETVI [9]; Setaria viridis, 504 h, dosage 20 g/ha): 80%
- pest or weed control at 80 g/ha (SETVI [9]; Setaria viridis, 504 h, dosage 80 g/ha): 100%
- pest or weed control at 80 g/ha (VERPE [10]; Veronica persica, 504 h): 90%
- pest or weed control at 20 g/ha (ALOMY [11]; Alopecurus myosuroides, 504 h, dosage 20 g/ha): 90%
- pest or weed control at 20 g/ha (VERPE [12]; Veronica persica, 504 h): 80%
- pest or weed control at 80 g/ha (AVEFA; Avena fatua, 504 h, 80 g/ha, pre-emergence): 90%
- pest or weed control at 80 g/ha (ABUTH [13]; Abutilon theophrasti, 504 h, 80 g/ha, scored visually after 3 weeks vs untreated controls (100% = plants have died, 0% = like control plants)): 100%
- pest or weed control at 20 g/ha (ABUTH [13]; Abutilon theophrasti, 504 h, dosage 20 g/ha, scored visually after 3 weeks vs untreated controls, 100% = plants have died, 0% = like control plants, read-out: Pre-emergence action against ABUTH (herbicidal activity in percent)): 90%
- pest or weed control at 20 g/ha (VIOTR [14]): 90%
- pest or weed control at 5 g/ha (SETVI [15]; dosage 5 g/ha): 90%
- pest or weed control at 20 g/ha (SETVI [15]; dosage 20 g/ha): 90%
- pest or weed control at 5 g/ha (ABUTH [16]; Abutilon theophrasti, 504 h, dosage 5 g/ha): 80%
- pest or weed control at 20 g/ha (ABUTH [16]; Abutilon theophrasti, 504 h, dosage 20 g/ha): 90%
- pest or weed control at 20 g/ha (AMARE [17]; Amaranthus retroflexus, 504 h): 100%
- pest or weed control at 20 g/ha (AMARE [18]; Amaranthus retroflexus, 504 h, 20 g/ha, scored visually after 3 weeks vs untreated controls, 100% = plants have died, 0% = like control plants): 100%
- pest or weed control at 80 g/ha (AMARE [18]; Amaranthus retroflexus, 504 h, 80 g/ha, scored visually after 3 weeks vs untreated controls, 100% = plants have died, 0% = like control plants): 100%

SMILES: CCn1nnnc1NC(=O)c1ccc(C(F)(F)F)c(C(=O)NC2CCC2)c1C [Example 2-42]
- Post-emergence action against MATIN in % (MATIN [1]): 80%
- Pre-emergence action against POLCO in % (POLCO; dosage 80 g/ha): 80%
- Pre-emergence action against VIOTR in % (VIOTR [2]; dosage 20 g/ha): 100%
- Pre-emergence action against VIOTR in % (VIOTR [2]; dosage 80 g/ha): 100%
- Pre-emergence action against DIGSA in % (DIGSA; dosage 20 g/ha): 100%
- Pre-emergence action against DIGSA in % (DIGSA; dosage 80 g/ha): 100%
- Post-emergence action against PHBPU in % (PHBPU [3]; dosage 5 g/ha): 90%
- Post-emergence action against PHBPU in % (PHBPU [3]; dosage 20 g/ha): 90%
- Pre-emergence action against PHBPU in % (PHBPU [4]; dosage 20 g/ha): 80%
- Pre-emergence action against PHBPU in % (PHBPU [4]; dosage 80 g/ha): 90%
- Pre-emergence action against ALOMY (ALOMY [5]; [19]): 80%
- Pre-emergence action against ALOMY (herbicidal activity) (ALOMY [5]; 80 g/ha, pre-emergence, scored visually after 3 weeks vs untreated controls (100% = plants have died, 0% = like control plants)): 90%
- Pre-emergence action against LOLRI in % (LOLRI): 80%
- Pre-emergence action against ECHCG in % (ECHCG [6]; 20 g/ha): 90%
- Pre-emergence action against ECHCG in % (ECHCG [6]; 80 g/ha): 100%
- Pre-emergence action against MATIN in % (MATIN [7]; dosage 20 g/ha): 100%
- Pre-emergence action against MATIN in % (MATIN [7]; dosage 80 g/ha): 100%
- Post-emergence action against ECHCG in % (ECHCG [8]; dosage 5 g/ha): 90%
- Post-emergence action against ECHCG in % (ECHCG [8]; dosage 20 g/ha): 100%
- Pre-emergence action against SETVI in % (SETVI [9]; dosage 20 g/ha): 80%
- Pre-emergence action against SETVI in % (SETVI [9]; dosage 80 g/ha): 100%
- Pre-emergence action against VERPE in % (VERPE [10]): 90%
- Post-emergence action against ALOMY in % (ALOMY [11]; dosage 5 g/ha): 90%
- Post-emergence action against ALOMY in % (ALOMY [11]; dosage 20 g/ha): 100%
- Post-emergence action against VERPE in % (VERPE [12]): 90%
- Pre-emergence action against AVEFA (AVEFA; [19]): 80%
- Pre-emergence action against AVEFA in % (AVEFA; 80 g/ha, pre-emergence): 90%
- Pre-emergence action against ABUTH (herbicidal activity) (ABUTH [13]; [20]): 100%
- Pre-emergence action against ABUTH (herbicidal activity in percent) (ABUTH [13]; dosage 20 g/ha, scored visually after 3 weeks vs untreated controls, 100% = plants have died, 0% = like control plants): 100%
- Post-emergence action against ABUTH in % (ABUTH [16]; dosage 5 g/ha): 80%
- Post-emergence action against ABUTH in % (ABUTH [16]; dosage 20 g/ha): 90%
- Post-emergence action at 20 g/ha against AMARE in % (AMARE [17]): 100%
- Pre-emergence action against AMARE in % (AMARE [18]; 20 g/ha, scored visually after 3 weeks vs untreated controls, 100% = plants have died, 0% = like control plants): 100%
- Pre-emergence action against AMARE in % (AMARE [18]; [20]): 100%
